Reference: the NIST ThermoML archive (doi:10.1021/je900596d)

Conditions: Liquid; for mass density: Vibrating tube method; for vapor or sublimation pressure: Closed cell (Static) method

FC(F)=C(F)C(F)(F)F [hexafluoropropene]
Conditions | mass density [kg/m3]
323.37 K, 3190.6 kPa | 1208.65
323.37 K, 3233.2 kPa | 1209.26
323.37 K, 3274 kPa | 1209.98
323.37 K, 3319.3 kPa | 1210.67
323.37 K, 3363.9 kPa | 1211.37
323.37 K, 3409 kPa | 1212.2
323.37 K, 3453.1 kPa | 1212.75
323.37 K, 3494.3 kPa | 1213.56
323.37 K, 3536.1 kPa | 1214.13
323.37 K, 3576.1 kPa | 1214.83
323.37 K, 3614.3 kPa | 1215.37
323.37 K, 3655.5 kPa | 1215.99
323.37 K, 3696.8 kPa | 1216.59
323.37 K, 3734.8 kPa | 1217.22
323.37 K, 3774.4 kPa | 1217.9
323.37 K, 3814.2 kPa | 1218.51
323.37 K, 3853.1 kPa | 1219.11
323.37 K, 3890.4 kPa | 1219.71
323.37 K, 3929.4 kPa | 1220.24
323.37 K, 3968.3 kPa | 1220.84
323.37 K, 4008.7 kPa | 1221.41
323.37 K, 4049.2 kPa | 1222.01
323.37 K, 4086.5 kPa | 1222.57
323.37 K, 4125.9 kPa | 1223.19
323.37 K, 4203.9 kPa | 1224.27
323.37 K, 4242.8 kPa | 1224.81
323.37 K, 4283.2 kPa | 1225.52
323.37 K, 4323.7 kPa | 1226
323.37 K, 4365 kPa | 1226.67
323.37 K, 4405.1 kPa | 1227.17
323.37 K, 4444.7 kPa | 1227.66
323.37 K, 4485 kPa | 1228.31
323.37 K, 4510.8 kPa | 1228.65
323.37 K, 4561.5 kPa | 1229.42
323.37 K, 4618.8 kPa | 1230.22
323.37 K, 4671.5 kPa | 1230.85
323.37 K, 4727.5 kPa | 1231.69
323.37 K, 4782 kPa | 1232.28
323.37 K, 4834 kPa | 1233.09
323.37 K, 4887.1 kPa | 1233.93
323.37 K, 4938.4 kPa | 1234.66
323.37 K, 4991 kPa | 1235.13
323.37 K, 5040.4 kPa | 1235.89
323.37 K, 5097.9 kPa | 1236.56
323.37 K, 5155.7 kPa | 1237.37
323.37 K, 5211.3 kPa | 1238.02
323.37 K, 5267.7 kPa | 1238.8
323.37 K, 5326.8 kPa | 1239.64
323.37 K, 5386 kPa | 1240.28
323.37 K, 5440.9 kPa | 1241.12
323.37 K, 5498.8 kPa | 1241.79
323.37 K, 5518.2 kPa | 1242.1
323.37 K, 5575.5 kPa | 1242.7
323.37 K, 5631.7 kPa | 1243.39
323.37 K, 5693 kPa | 1244.16
323.37 K, 5751.8 kPa | 1244.98
323.37 K, 5808.1 kPa | 1245.67
323.37 K, 5864.8 kPa | 1246.37
323.37 K, 5921.9 kPa | 1247.09
323.37 K, 5977.9 kPa | 1247.78
323.37 K, 6035 kPa | 1248.49
323.37 K, 6091.4 kPa | 1249
323.37 K, 6150.7 kPa | 1249.77
323.37 K, 6208.1 kPa | 1250.43
323.37 K, 6265.4 kPa | 1251.23
323.37 K, 6323.2 kPa | 1251.69
323.37 K, 6380.6 kPa | 1252.41
323.37 K, 6438.3 kPa | 1253.13
323.37 K, 6494.6 kPa | 1253.91
323.37 K, 6551.8 kPa | 1254.4
323.37 K, 6606.9 kPa | 1255.07
323.37 K, 6663.3 kPa | 1255.73
323.37 K, 6721.4 kPa | 1256.27
323.37 K, 6837.9 kPa | 1257.77
323.37 K, 6894.2 kPa | 1258.24
323.37 K, 6952.1 kPa | 1259
323.37 K, 7008.2 kPa | 1259.55
323.37 K, 7067.2 kPa | 1260.31
323.37 K, 7126.4 kPa | 1260.79
323.37 K, 7183.6 kPa | 1261.47
323.37 K, 7241.8 kPa | 1262.13
323.37 K, 7299.5 kPa | 1262.75
323.37 K, 7358.7 kPa | 1263.39
323.37 K, 7415.2 kPa | 1263.98
323.37 K, 7474.7 kPa | 1264.58
323.37 K, 7531.4 kPa | 1265.19
323.37 K, 7588.8 kPa | 1265.89
323.37 K, 7648.3 kPa | 1266.42
323.37 K, 7707.1 kPa | 1267.12
323.37 K, 7764.7 kPa | 1267.63
323.37 K, 7823.9 kPa | 1268.27
323.37 K, 7882.7 kPa | 1268.85
323.37 K, 7940.4 kPa | 1269.67
323.37 K, 7995.5 kPa | 1270.08
323.37 K, 8048 kPa | 1270.66
323.37 K, 8125.8 kPa | 1271.24
323.37 K, 8203.2 kPa | 1272.24
323.37 K, 8277.9 kPa | 1272.98
323.37 K, 8354.3 kPa | 1273.75
323.37 K, 8407.9 kPa | 1274.11
323.37 K, 8486.2 kPa | 1275.02
323.37 K, 8565.3 kPa | 1275.71
323.37 K, 8644.1 kPa | 1276.5
323.37 K, 8721.2 kPa | 1277.38
323.37 K, 8795.7 kPa | 1278.02
323.37 K, 8871.5 kPa | 1278.77
323.37 K, 8923.6 kPa | 1279.19
323.37 K, 9000 kPa | 1279.98
323.37 K, 9075.8 kPa | 1280.67
323.37 K, 9128 kPa | 1281.22
323.37 K, 9181 kPa | 1281.6
323.37 K, 9257 kPa | 1282.4
323.37 K, 9330.9 kPa | 1283.02
323.37 K, 9404.8 kPa | 1283.76
323.37 K, 9479.6 kPa | 1284.46
323.37 K, 9533 kPa | 1284.99
323.37 K, 9609.3 kPa | 1285.65
323.37 K, 9682.9 kPa | 1286.27
323.37 K, 9757.3 kPa | 1287.03
323.37 K, 9833.2 kPa | 1287.72
323.37 K, 9909.3 kPa | 1288.32
323.37 K, 9986.3 kPa | 1289.02
343.18 K, 2257.1 kPa | 1022.11
343.18 K, 2260.4 kPa | 1022.55
343.18 K, 2263.3 kPa | 1022.75
343.18 K, 2269.6 kPa | 1023.31
343.18 K, 2279.2 kPa | 1024.07
343.18 K, 2287.2 kPa | 1024.5
343.18 K, 2297 kPa | 1025.46
343.18 K, 2306 kPa | 1025.93
343.18 K, 2314 kPa | 1026.5

Conditions | vapor or sublimation pressure [kPa]
328.21 K | 1595.1
333.21 K | 1791.4
338.18 K | 2007.9
